Measurements reported in patent publication US20230035057A1, “METHOD OF TREATMENT OF SLEEP APNEA” (PRIMAVERA BIOSCIENCES, INC., priority 2021, published 2023).

System: sleep apnea patient
Assay: Oxygen saturation (SpO2) monitoring during sleep with Wellure's O2Ring in a sleep apnea patient
Format: in vivo
From the text: FIG. 1 is a diagram showing sleep apnea patient's oxygen saturation levels (SpO2). Oxygen saturation levels (SpO2) in the blood during sleep were monitored using Wellure's O2Ring.
(§1) Oxygen saturation levels (SpO2) in the blood during sleep were monitored using Wellure's O2Ring.
as §1

CN[C@@H](C)[C@H](O)c1ccccc1 [ephedrine]
breathing problems observed in FIG. 1 (FIG. 2, 25 mg ephedrine one hour before bed plus Avinol PM, in the first three hours, came back afterwards): greatly reduced
sleep apnea patient's oxygen saturation levels (SpO2) (FIG. 2, 25 mg of ephedrine one hour before going to bed along with sleeping pill Avinol PM just before going to bed): improved
sleep apnea patient's oxygen saturation levels (SpO2) (FIG. 3, 25 mg ephedrine one hour before bed plus one tablet Avinol PM just before bed, another 25 mg ephedrine three hours after going to bed): improved
breathing problems caused by sleep apnea (general statement, dose not given): reduces
